Laboratory results: PubChem BioAssay AID1963866 (Molecular Pharmacology Branch, DTP, NCI, 2024)
pIC50: −log10 of the molar value.

Tested on: PDC KRAS tumor spheroids with HUVEC/MSC, viability
Assay: Anticancer human tumor 349418-098-R-PDC patient-derived lung adenocarcinoma cell line growth inhibition [KRAS2]
Settings: for pIC50: curve of first compound; for viability, T/C: stronger effect = lower value
Description: Multicellular complex tumor spheroid response to RAS pathway inhibitors in combination with a targeted agents in patient-derived cell lines with oncogenic KRAS variants from multiple cancer types
A high-throughput screen of multi-cell type tumor spheroids was designed to identify active combinations of targeted small molecules and KRAS pathway inhibitors. Complex spheroids include a stromal component modeled by human endothelial cells (HUVEC) and fibroblasts modeled by human mesenchymal stem cells (MSCs). The concentration ranges selected for each drug and investigational agent were based upon clinically achievable concentrations if the clinical Cmax of the agent was known.
Compounds. The drugs and investigational agents: BI-3406 (NSC825286), BAY-293 (NSC824723), batoprotafib (TNO155; NSC825523), sotorasib (AMG 510; NSC818433), MRTX1257 (NSC819558), elimusertib (BAY 1895344; NSC800525), molibresib (GSK525762; NSC774829), temuterkib (LY3214996; NSC803410), venetoclax (NSC766270), alisertib (NSC759677), olaparib (NSC753686), talazoparib (NSC767125), erdafitinib (NSC781556), ipatasertib (NSC767898), cabozantinib (NSC761068), nintedanib (NSC756659), abemaciclib (NSC768073), docetaxel (NSC628503), trametinib (NSC758246), and sapanisertib (NSC764658) were obtained from the National Cancer Institute (NCI) Developmental Therapeutics Program Chemical Repository. The FDA-approved anticancer drug set is available from the Developmental Therapeutics Program. […] The stock solutions were prepared in dimethyl sulfoxide (DMSO, Sigma-Aldrich, St. Louis, MO, cat. D2650) at 800-fold the tested concentration and stored at -70 degrees C prior to their use. All drugs and investigational agents were tested over a range starting from a high concentration at or near the clinical Cmax and decreasing in half-log increments. If the clinical Cmax for an agent had not been determined, the highest concentration tested was 10 microM.
Cell Culture. All cells were maintained in an incubator at 37 degrees C and 5% CO2 with 95% humidity. The PDC lines were cultured according to standard operating procedures established by the NCI PDMR (https://pdmr.cancer.gov/sops/default.htm). Briefly, all PDCs were thawed and cultured in Matrigel-coated flasks prepared with a working solution of 1X Ham's F-12 nutrient mix, without supplementation (Invitrogen, Waltham, MA, cat. 11765054), 100 U/mL penicillin-streptomycin (Invitrogen, cat. 15140122), and 2.5% Matrigel (Corning Inc., Corning, NY, cat. 354248) for the first three passages. All PDCs were cultured in complete DMEM/F-12 media containing advanced DMEM/F-12 (Invitrogen, cat. 12634028), 4.9% defined fetal bovine serum, heat inactivated (HyClone Laboratories Inc., Logan, UT, cat. SH30070.03HI), 389 ng/mL hydrocortisone (Sigma-Aldrich, cat. H4001), 9.7 ng/mL human EGF recombinant protein (Invitrogen, cat. PHG0313), 23.4 microg/mL adenine (Sigma-Aldrich, cat. A2786), 97.3 U/mL penicillin-streptomycin (Invitrogen, cat. 15140122), 1.9 mM L-glutamine (Invitrogen, cat. 25030081), and 9.7 microM Y-27632 dihydrochloride (Tocris Bioscience, Bristol, United Kingdom, cat. 1254). The PDCs were cultured in complete DMEM/F12 media without 9.7 microM Y-27632 dihydrochloride for at least two passages prior to the screen. The established cell line HOP-62 was cultured in RPMI 1640 medium, HEPES (Invitrogen, cat. 22400105) with 10% defined fetal bovine serum (HyClone Laboratories Inc., cat. SH30070.03) and 2 mM L-glutamine (Invitrogen, cat. 25030081). The pooled donor HUVEC were cultured in endothelial cell growth medium 2 (PromoCell, Heidelberg, Germany, cat. C-22011) and the hMSC were cultured in mesenchymal stem cell growth medium 2 (PromoCell, cat. C-28009). For all experiments, HUVEC and hMSC were used at passages </=5, while the malignant cell lines were used at passages </=15. […]

[1] = second compound 0.1 µM, first compound 0.0316 µM
[2] = second compound 0.1 µM, first compound 0.1 µM
[3] = second compound 0.1 µM, first compound 0.316 µM
[4] = second compound 0.1 µM, first compound 1 µM
[5] = second compound 0.1 µM, first compound 3.16 µM
[6] = second compound 0.316 µM, first compound 0.0316 µM
[7] = second compound 0.316 µM, first compound 0.1 µM
[8] = second compound 0.316 µM, first compound 0.316 µM
[9] = second compound 0.316 µM, first compound 1 µM
[10] = second compound 0.316 µM, first compound 3.16 µM
[11] = second compound 1 µM, first compound 0.0316 µM
[12] = second compound 1 µM, first compound 0.1 µM
[13] = second compound 1 µM, first compound 0.316 µM
[14] = second compound 1 µM, first compound 1 µM
[15] = second compound 1 µM, first compound 3.16 µM
[16] = second compound 3.16 µM, first compound 0.0316 µM
[17] = second compound 3.16 µM, first compound 0.1 µM
[18] = second compound 3.16 µM, first compound 0.316 µM
[19] = second compound 3.16 µM, first compound 1 µM
[20] = second compound 3.16 µM, first compound 3.16 µM
[21] = second compound 10 µM, first compound 0.0316 µM
[22] = second compound 10 µM, first compound 0.1 µM
[23] = second compound 10 µM, first compound 0.316 µM
[24] = second compound 10 µM, first compound 1 µM
[25] = second compound 10 µM, first compound 3.16 µM
[26] = second compound 0.1 µM, first compound 10 µM
[27] = second compound 0.316 µM, first compound 10 µM
[28] = second compound 1 µM, first compound 10 µM
[29] = second compound 3.16 µM, first compound 10 µM
[30] = second compound 10 µM, first compound 10 µM
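Also: spheroids exposed to compounds for seven days before readout.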

Work on `CC(=O)OC12COC1CC(O)C1(C)C(=O)C(O)C3=C(C)C(OC(=O)C(O)C(NC(=O)OC(C)(C)C)c4ccccc4)CC(O)(C(OC(=O)c4ccccc4)C21)C3(C)C` (stereo not given) + CC1OCC2(CCN(c3cnc(Sc4ccnc(N)c4Cl)c(N)n3)CC2)C1N yielded a pIC50 (second compound 0.1 µM) greater than 8.00, a pIC50 (second compound 0.316 µM) greater than 8.00 and a pIC50 (second compound 1 µM) greater than 8.00. It also gave a pIC50 (second compound 3.16 µM) greater than 8.00, a pIC50 (second compound 10 µM) greater than 8.00 and a viability, T/C (second compound 0.1 µM, first compound 0.01 µM) of 18%. The viability, T/C [1] was 28.1%, the viability, T/C [2] was 21.9% and the viability, T/C [3] was 27.2%. It also gave a viability, T/C [4] of 28.7%, a viability, T/C [5] of 36.1% and a viability, T/C (second compound 0.316 µM, first compound 0.01 µM) of 21.6%. The viability, T/C [6] was 22.9%, the viability, T/C [7] was 29.1% and the viability, T/C [8] was 27.9%. It also gave a viability, T/C [9] of 29.7%, a viability, T/C [10] of 35.2% and a viability, T/C (second compound 1 µM, first compound 0.01 µM) of 22.4%. The viability, T/C [11] was 26.9%, the viability, T/C [12] was 27.5% and the viability, T/C [13] was 27.6%. The viability, T/C [14] was 33.9%, the viability, T/C [15] was 43.5% and the viability, T/C (second compound 3.16 µM, first compound 0.01 µM) was 21.5%. The viability, T/C [16] was 28.4%, the viability, T/C [17] was 22.5% and the viability, T/C [18] was 25.4%. It also gave a viability, T/C [19] of 26%, a viability, T/C [20] of 28.3% and a viability, T/C (second compound 10 µM, first compound 0.01 µM) of 19.9%. It also gave a viability, T/C [21] of 24.5%, a viability, T/C [22] of 28.3% and a viability, T/C [23] of 24.1%. For the same molecule, the viability, T/C [24] was 31.7% and the viability, T/C [25] was 38.5%.
Molecule `O=C(c1cc(Cc2n[nH]c(=O)c3ccccc23)ccc1F)N1CCN(C(=O)C2CC2)CC1` + COc1cc2nc(C)nc(NC(C)c3cc(N)cc(C(F)(F)F)c3)c2cc1OC1CCOC1 has a pIC50 (second compound 0.1 µM) of 5.27, a pIC50 (second compound 0.316 µM) of 5.37 and a pIC50 (second compound 1 µM) of 5.30. It also gave a pIC50 (second compound 3.16 µM) of 5.71, a pIC50 (second compound 10 µM) of 7.06 and a viability, T/C [1] of 89.4%. It also gave a viability, T/C [2] of 96%, a viability, T/C [3] of 85.9% and a viability, T/C [4] of 85.6%. It also gave a viability, T/C [5] of 64.8%, a viability, T/C [26] of 32.3% and a viability, T/C [6] of 92.7%. The viability, T/C [7] was 94.8%, the viability, T/C [8] was 77.5% and the viability, T/C [9] was 87.6%. It also gave a viability, T/C [10] of 57.8%, a viability, T/C [27] of 27.5% and a viability, T/C [11] of 110%. For the same molecule, the viability, T/C [12] was 105%, the viability, T/C [13] was 75.8% and the viability, T/C [14] was 93.8%. It also gave a viability, T/C [15] of 61.5%, a viability, T/C [28] of 30.2% and a viability, T/C [16] of 93.2%. For the same molecule, the viability, T/C [17] was 76.6%, the viability, T/C [18] was 80.5% and the viability, T/C [19] was 60.1%. It also gave a viability, T/C [20] of 41.1%, a viability, T/C [29] of 23.8% and a viability, T/C [21] of 89.9%. It also gave a viability, T/C [22] of 36.1%, a viability, T/C [23] of 35.3% and a viability, T/C [24] of 22.2%. It also gave a viability, T/C [25] of 10.2% and a viability, T/C [30] of 9.73%.
Molecule `CC1(C)CCC(CN2CCN(c3ccc(C(=O)NS(=O)(=O)c4ccc(NCC5CCOCC5)c([N+](=O)[O-])c4)c(Oc4cnc5[nH]ccc5c4)c3)CC2)=C(c2ccc(Cl)cc2)C1` + C=CC(=O)N1CCN(c2nc(=O)n(-c3c(C)ccnc3C(C)C)c3nc(-c4c(O)cccc4F)c(F)cc23)C(C)C1 has a pIC50 (second compound 0.1 µM) of 5.76, a pIC50 (second compound 0.316 µM) of 5.75 and a pIC50 (second compound 1 µM) of 5.94. The pIC50 (second compound 3.16 µM) was 6.27, the pIC50 (second compound 10 µM) was greater than 7.50 and the viability, T/C [1] was 99.6%. It also gave a viability, T/C [2] of 91.4%, a viability, T/C [3] of 91.7% and a viability, T/C [4] of 85.1%. It also gave a viability, T/C [5] of 12.4%, a viability, T/C [26] of 3.05% and a viability, T/C [6] of 92.5%. The viability, T/C [7] was 92.2%, the viability, T/C [8] was 82.6% and the viability, T/C [9] was 78.7%. For the same molecule, the viability, T/C [10] was 20.4%, the viability, T/C [27] was 3.58% and the viability, T/C [11] was 78.4%. It also gave a viability, T/C [12] of 80.5%, a viability, T/C [13] of 75.4% and a viability, T/C [14] of 55.6%. The viability, T/C [15] was 12.9%, the viability, T/C [28] was 2.8% and the viability, T/C [16] was 59.6%. The viability, T/C [17] was 58.2%, the viability, T/C [18] was 52.6% and the viability, T/C [19] was 44.2%. For the same molecule, the viability, T/C [20] was 13.1%, the viability, T/C [29] was 3.37% and the viability, T/C [21] was 32.7%. For the same molecule, the viability, T/C [22] was 33.7%, the viability, T/C [23] was 31.9% and the viability, T/C [24] was 32.5%. The viability, T/C [25] was 6.8% and the viability, T/C [30] was 5.41%.
